In US12252524B2, “GIP/GLP1 co-agonist compounds” (Eli Lilly and Company, priority 2018, dated 2025):
Numbered stars: 1 amine (or outer) side, 2 acyl side, 3 side chain; on linkers, the order of the positions; unused ones are H or OH. Square brackets hold non-standard residues; d marks the D form. Side chains are listed from the residue outwards. Peptide text beside a SMILES is read from it. * marks the point of attachment. C20 diacid = O=C(O)CCCCCCCCCCCCCCCCCCC(=O)*; C18 diacid = O=C(O)CCCCCCCCCCCCCCCCC(=O)*; γGlu = O=C(O)[C@H](CCC(=O)[*:2])N[*:1]; αMeY = C[C@](N)(Cc1ccc(O)cc1)C(=O)O; αMeL = CC(C)C[C@](C)(N)C(=O)O; Orn = NCCC[C@H](N)C(=O)O; AEEA = NCCOCCOCC(=O)O; Aib = CC(C)(N)C(=O)O

Assays:
[1] = target: human GLP-1 receptor (GLP-1R) (Homo sapiens, UniProt P43220); assay: cAMP pharmacological functional assay in presence of casein, hGLP-1R; format: cell-based; conditions: HEK293 cells expressing hGLP-1R, 0.1% Casein, geometric mean; read-out: hGLP1R cAMP Rel EC50 nM (SEM, n)
Sequence of human GLP-1 receptor (GLP-1R) (P43220 24-463): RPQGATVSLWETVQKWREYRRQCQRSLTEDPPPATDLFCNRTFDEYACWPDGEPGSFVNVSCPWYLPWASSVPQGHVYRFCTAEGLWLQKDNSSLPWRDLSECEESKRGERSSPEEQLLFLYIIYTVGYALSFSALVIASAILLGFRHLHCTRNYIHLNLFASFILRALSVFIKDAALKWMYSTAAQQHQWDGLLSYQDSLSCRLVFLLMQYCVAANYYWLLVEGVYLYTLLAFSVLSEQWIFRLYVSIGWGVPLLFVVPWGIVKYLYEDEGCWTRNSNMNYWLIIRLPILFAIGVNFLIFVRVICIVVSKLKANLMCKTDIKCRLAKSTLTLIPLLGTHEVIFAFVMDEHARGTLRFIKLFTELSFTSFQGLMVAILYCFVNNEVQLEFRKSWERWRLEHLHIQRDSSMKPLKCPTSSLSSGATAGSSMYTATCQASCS

[2] = target: T1, gastric inhibitory peptide receptor (GIPR) (Homo sapiens, UniProt P48546); assay: cAMP pharmacological functional assay in presence of casein, hGIPR; format: cell-based; conditions: HEK293 cells expressing hGIPR, 0.1% Casein, geometric mean; read-out: hGIPR cAMP Rel EC50 nM (SEM, n)
T1 sequence (P48546 22-466): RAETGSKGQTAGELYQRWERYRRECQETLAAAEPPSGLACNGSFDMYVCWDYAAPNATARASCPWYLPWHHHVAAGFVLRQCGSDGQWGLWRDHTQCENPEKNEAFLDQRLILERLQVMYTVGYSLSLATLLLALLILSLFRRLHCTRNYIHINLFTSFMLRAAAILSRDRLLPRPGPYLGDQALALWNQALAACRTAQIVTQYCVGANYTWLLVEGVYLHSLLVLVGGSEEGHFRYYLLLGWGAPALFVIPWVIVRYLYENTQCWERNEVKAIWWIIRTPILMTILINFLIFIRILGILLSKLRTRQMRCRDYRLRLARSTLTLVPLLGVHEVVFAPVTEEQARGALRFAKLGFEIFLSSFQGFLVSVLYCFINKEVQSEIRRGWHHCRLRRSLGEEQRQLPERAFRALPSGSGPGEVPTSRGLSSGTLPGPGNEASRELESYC

human GLP-1R [3] = target: T2, human GLP-1R (Homo sapiens, UniProt P43220); assay: GLP-1R CHO cell β-arrestin recruitment assay; format: cell-based; design: host or cells: CHO-K1 PathHunter cells, assay-ready frozen; conditions: for EC50: CHO-K1 cells, PathHunter β-arrestin-2 recruitment, 0.1% casein, read-out: hGLP1R B-Arrestin2 Rel EC50 uM (SEM, n); for hGLP1R B-Arrestin2 % Top: normalized to GLP-1 maximum control
T2 sequence (P43220 24-463): as the sequence (P43220 24-463) above
Summary of the method: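 PathHunter CHO-K1 cells with ProLink-tagged human GLP-1R and enzyme-acceptor-tagged β-arrestin-2 treated with serially diluted peptides in assay buffer containing 0.1% hydrolyzed casein, 90 min at 37 °C.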

human GLP-1R [4] = target: T2, human GLP-1R; assay: GLP-1R HEK293 cell membrane [35S]GTPγS binding assay; format: biochemical; design: expressed in transfected cells; host or cells: HEK293 cells expressing human GLP-1R; membranes; conditions: HEK293 cell membranes expressing human GLP-1R, [35S]GTPγS binding; read-out: hGLP1R GTPgS Rel EC50 nM (SEM, n)
Summary of the method: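 Membranes from HEK293 cells expressing the receptor incubated with peptide and […] [35S]GTPγS in HEPES pH 7.4 buffer with NaCl, MgCl2, saponin and BSA, 30 min at room temperature. Gαs-bound label captured by anti-Gαs antibody/SPA beads and counted; EC50 from four-parameter logistic fit.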

Work on `CC[C@H](C)[C@H](NC(=O)[C@H](CC(C)C)NC(=O)[C@](C)(Cc1ccc(O)cc1)NC(=O)[C@H](CCC(=O)O)NC(=O)[C@@H](NC(=O)[C@H](Cc1ccccc1)NC(=O)[C@H](C)NC(=O)C(C)(C)NC(=O)[C@H](CCC(N)=O)NC(=O)[C@H](C)NC(=O)[C@H](CCCCNC(=O)COCCOCCNC(=O)CC[C@H](NC(=O)CCCCCCCCCCCCCCCCCCC(=O)O)C(=O)O)NC(=O)[C@H](CCCCN)NC(=O)[C@H](CC(=O)O)NC(=O)[C@H](CC(C)C)NC(=O)[C@](C)(CC(C)C)NC(=O)[C@@H](NC(=O)[C@H](CO)NC(=O)[C@H](Cc1ccc(O)cc1)NC(=O)[C@H](CC(=O)O)NC(=O)[C@H](CO)NC(=O)[C@@H](NC(=O)[C@H](Cc1ccccc1)NC(=O)[C@@H](NC(=O)CNC(=O)[C@H](CCC(=O)O)NC(=O)C(C)(C)NC(=O)[C@H](N)Cc1ccc(O)cc1)[C@@H](C)O)[C@@H](C)O)[C@@H](C)CC)[C@@H](C)CC)C(=O)N[C@@H](C)C(=O)NCC(=O)NCC(=O)N1CCC[C@H]1C(=O)N[C@@H](CO)C(=O)N[C@@H](CO)C(=O)NCC(=O)N[C@@H](C)C(=O)N1CCC[C@H]1C(=O)N1CCC[C@H]1C(=O)N1CCC[C@H]1C(=O)N[C@@H](CO)C(N)=O` [Example 373] (H-[dY][Aib]EGTFTSDYSI[αMeL]LDKK([AEEA-γGlu-C20 diacid])AQ[Aib]AFIE[αMeY]LIAGGPSSGAPPPS-NH2) yielded an EC50 [1] of 0.436 nM, an EC50 [2] of 0.185 nM and an EC50 (human GLP-1R [3]) of 0.00954 µM. For the same compound, the “hGLP1R B-Arrestin2 % Top” value (human GLP-1R [3]) was 22.9% and the EC50 (human GLP-1R [4]) was 0.336 nM.
Compound `CC[C@H](C)[C@H](NC(=O)[C@H](CC(C)C)NC(=O)[C@](C)(Cc1ccc(O)cc1)NC(=O)[C@H](CCC(=O)O)NC(=O)[C@@H](NC(=O)[C@H](Cc1ccccc1)NC(=O)[C@H](CCC(=O)O)NC(=O)C(C)(C)NC(=O)[C@H](CCC(N)=O)NC(=O)[C@H](C)NC(=O)[C@H](CCCCNC(=O)COCCOCCNC(=O)COCCOCCNC(=O)CC[C@H](NC(=O)CCCCCCCCCCCCCCCCC(=O)O)C(=O)O)NC(=O)[C@H](CCCCN)NC(=O)[C@H](CC(=O)O)NC(=O)[C@H](CC(C)C)NC(=O)[C@](C)(CC(C)C)NC(=O)[C@@H](NC(=O)[C@H](CO)NC(=O)[C@H](Cc1ccc(O)cc1)NC(=O)[C@H](CC(=O)O)NC(=O)[C@H](CO)NC(=O)[C@@H](NC(=O)[C@H](Cc1ccccc1)NC(=O)[C@@H](NC(=O)CNC(=O)[C@H](CCC(=O)O)NC(=O)C(C)(C)NC(=O)[C@H](N)Cc1ccc(O)cc1)[C@@H](C)O)[C@@H](C)O)[C@@H](C)CC)[C@@H](C)CC)C(=O)N[C@@H](C)C(=O)NCC(=O)NCC(=O)N1CCC[C@H]1C(=O)N[C@@H](CO)C(=O)N[C@@H](CO)C(=O)NCC(=O)N[C@@H](C)C(=O)N1CCC[C@H]1C(=O)N1CCC[C@H]1C(=O)N1CCC[C@H]1C(=O)N[C@@H](CO)C(N)=O` [Example 374] (H-[dY][Aib]EGTFTSDYSI[αMeL]LDKK([AEEA-AEEA-γGlu-C18 diacid])AQ[Aib]EFIE[αMeY]LIAGGPSSGAPPPS-NH2) has an EC50 [1] of 0.19 nM, an EC50 [2] of 0.0468 nM and an EC50 (human GLP-1R [3]) of 0.0218 µM. The “hGLP1R B-Arrestin2 % Top” value (human GLP-1R [3]) was 34.7% and the EC50 (human GLP-1R [4]) was 0.345 nM.
For `CC[C@H](C)[C@H](NC(=O)[C@H](CC(C)C)NC(=O)[C@](C)(Cc1ccc(O)cc1)NC(=O)[C@H](CCC(=O)O)NC(=O)[C@@H](NC(=O)[C@H](Cc1ccccc1)NC(=O)[C@H](CCC(=O)O)NC(=O)C(C)(C)NC(=O)[C@H](CCC(N)=O)NC(=O)[C@H](C)NC(=O)[C@H](CCCCNC(=O)COCCOCCNC(=O)COCCOCCNC(=O)CC[C@H](NC(=O)CCCCCCCCCCCCCCCCC(=O)O)C(=O)O)NC(=O)[C@H](CCCN)NC(=O)[C@H](CC(=O)O)NC(=O)[C@H](CC(C)C)NC(=O)[C@](C)(CC(C)C)NC(=O)[C@@H](NC(=O)[C@H](CO)NC(=O)[C@H](Cc1ccc(O)cc1)NC(=O)[C@H](CC(=O)O)NC(=O)[C@H](CO)NC(=O)[C@@H](NC(=O)[C@H](Cc1ccccc1)NC(=O)[C@@H](NC(=O)CNC(=O)[C@H](CCC(=O)O)NC(=O)C(C)(C)NC(=O)[C@H](N)Cc1ccc(O)cc1)[C@@H](C)O)[C@@H](C)O)[C@@H](C)CC)[C@@H](C)CC)C(=O)N[C@@H](C)C(=O)NCC(=O)NCC(=O)N1CCC[C@H]1C(=O)N[C@@H](CO)C(=O)N[C@@H](CO)C(=O)NCC(=O)N[C@@H](C)C(=O)N1CCC[C@H]1C(=O)N1CCC[C@H]1C(=O)N1CCC[C@H]1C(=O)N[C@@H](CO)C(N)=O` [Example 375] (H-[dY][Aib]EGTFTSDYSI[αMeL]LD[Orn]K([AEEA-AEEA-γGlu-C18 diacid])AQ[Aib]EFIE[αMeY]LIAGGPSSGAPPPS-NH2), the EC50 [1] was 0.152 nM, the EC50 [2] was 0.0471 nM and the EC50 (human GLP-1R [3]) was 0.0114 µM. The “hGLP1R B-Arrestin2 % Top” value (human GLP-1R [3]) was 24.2% and the EC50 (human GLP-1R [4]) was 0.419 nM.
In the case of `CC[C@H](C)[C@H](NC(=O)[C@H](CC(C)C)NC(=O)[C@](C)(Cc1ccc(O)cc1)NC(=O)[C@H](CCC(=O)O)NC(=O)[C@@H](NC(=O)[C@H](Cc1ccccc1)NC(=O)[C@H](C)NC(=O)C(C)(C)NC(=O)[C@H](CCC(N)=O)NC(=O)[C@H](C)NC(=O)[C@H](CCCCNC(=O)COCCOCCNC(=O)COCCOCCNC(=O)CC[C@H](NC(=O)CCCCCCCCCCCCCCCCC(=O)O)C(=O)O)NC(=O)[C@H](CCCCN)NC(=O)[C@H](CC(=O)O)NC(=O)[C@H](CC(C)C)NC(=O)[C@](C)(CC(C)C)NC(=O)[C@@H](NC(=O)[C@H](CO)NC(=O)[C@H](Cc1ccc(O)cc1)NC(=O)[C@H](CC(=O)O)NC(=O)[C@H](CO)NC(=O)[C@@H](NC(=O)[C@H](Cc1ccccc1)NC(=O)[C@@H](NC(=O)CNC(=O)[C@H](CCC(=O)O)NC(=O)C(C)(C)NC(=O)[C@H](N)Cc1ccc(O)cc1)[C@@H](C)O)[C@@H](C)O)[C@@H](C)CC)[C@@H](C)CC)C(=O)N[C@@H](C)C(=O)NCC(=O)NCC(=O)N1CCC[C@H]1C(=O)N[C@@H](CO)C(=O)N[C@@H](CO)C(=O)NCC(=O)N[C@@H](C)C(=O)N1CCC[C@H]1C(=O)N1CCC[C@H]1C(=O)N1CCC[C@H]1C(=O)N[C@@H](CO)C(N)=O` [Example 376] (H-[dY][Aib]EGTFTSDYSI[αMeL]LDKK([AEEA-AEEA-γGlu-C18 diacid])AQ[Aib]AFIE[αMeY]LIAGGPSSGAPPPS-NH2), the EC50 [1] is reported as 0.17 nM, the EC50 [2] is reported as 0.0723 nM and the EC50 (human GLP-1R [3]) is reported as 0.0123 µM. For the same compound, the “hGLP1R B-Arrestin2 % Top” value (human GLP-1R [3]) was 25.6% and the EC50 (human GLP-1R [4]) was 0.326 nM.
For `CC[C@H](C)[C@H](NC(=O)[C@H](CC(C)C)NC(=O)[C@](C)(Cc1ccc(O)cc1)NC(=O)[C@H](CCC(=O)O)NC(=O)[C@@H](NC(=O)[C@H](Cc1ccccc1)NC(=O)[C@H](C)NC(=O)C(C)(C)NC(=O)[C@H](CCC(N)=O)NC(=O)[C@H](C)NC(=O)[C@H](CCCCNC(=O)COCCOCCNC(=O)COCCOCCNC(=O)CC[C@H](NC(=O)CCCCCCCCCCCCCCCCC(=O)O)C(=O)O)NC(=O)[C@H](CCCN)NC(=O)[C@H](CC(=O)O)NC(=O)[C@H](CC(C)C)NC(=O)[C@](C)(CC(C)C)NC(=O)[C@@H](NC(=O)[C@H](CO)NC(=O)[C@H](Cc1ccc(O)cc1)NC(=O)[C@H](CC(=O)O)NC(=O)[C@H](CO)NC(=O)[C@@H](NC(=O)[C@H](Cc1ccccc1)NC(=O)[C@@H](NC(=O)CNC(=O)[C@H](CCC(=O)O)NC(=O)C(C)(C)NC(=O)[C@H](N)Cc1ccc(O)cc1)[C@@H](C)O)[C@@H](C)O)[C@@H](C)CC)[C@@H](C)CC)C(=O)N[C@@H](C)C(=O)NCC(=O)NCC(=O)N1CCC[C@H]1C(=O)N[C@@H](CO)C(=O)N[C@@H](CO)C(=O)NCC(=O)N[C@@H](C)C(=O)N1CCC[C@H]1C(=O)N1CCC[C@H]1C(=O)N1CCC[C@H]1C(=O)N[C@@H](CO)C(N)=O` [Example 377] (H-[dY][Aib]EGTFTSDYSI[αMeL]LD[Orn]K([AEEA-AEEA-γGlu-C18 diacid])AQ[Aib]AFIE[αMeY]LIAGGPSSGAPPPS-NH2), the EC50 [1] was 0.136 nM, the EC50 [2] was 0.0544 nM and the EC50 (human GLP-1R [3]) was 0.00532 µM. For the same compound, the “hGLP1R B-Arrestin2 % Top” value (human GLP-1R [3]) was 16.7% and the EC50 (human GLP-1R [4]) was 0.356 nM.
